# From US11331299B2, “Medicinal use of serrulatane diterpenes” (The University of Sydney, priority 2016, dated 2022)
# Like-named read-outs stand apart in the source and are kept apart here.
# System: 280 human cancer cell lines
# Test: OncoPanel cell proliferation assay (10-day)
# Assay type: cell-based
# Conditions: Homo sapiens; for GI50: read-out: Cell Count GI50; for IC50: read-out: Cell Count IC50; for EC50: read-out: Cell Count EC50
# [1] = KHOS-240S, Soft Tissue - Osteosarcoma
# [2] = ME-180, ME-180, Female GU - Ovary
# [3] = MG-63, MG-63, Soft Tissue - Osteosarcoma
# [4] = MHH-PREB-1, MHH-PREB-1, Leukemia
# [5] = MIA PaCa-2, Mia PaCa-2, Pancreas
# [6] = MS751, MS751, Female GU - Ovary
# [7] = Malme-3M, MALME3M, Skin (Melanoma)
# [8] = NCI-H292, NCI-H292, Lung - NSCLC
# [9] = NCI-H295R, Endocrine - Adrenal gland
# [10] = NCI-H441, NCIH441, Lung - NSCLC
# [11] = NCI-H460, NCI-H460, Lung - NSCLC
# [12] = NCI-H520, NCI-H520, Lung - NSCLC
# [13] = NCI-H596, NCI-H596, Lung - NSCLC
# [14] = NCI-H661, NCI-H661, Lung - NSCLC
# [15] = NTERA-2-cl-D1, NTERA-2 cl.D1, Testis
# [16] = OVCAR-3, OVCAR3, Female GU - Ovary
# [17] = RPMI-7951, RPMI-7951, Skin (Melanoma)
# [18] = SAOS-2, SaOS2, Soft Tissue - Osteosarcoma
compound,measurement,setting,value
"CC(C)=CCC[C@H](C)[C@@H]1CC[C@@H](C)c2c1cc(C)c(O)c2O [Compound 4, 7,8-dihydroxyserrulat-14-ene]",GI50,[1],4.96 µM
same,IC50,[1],4.96 µM
same,EC50,"KLE, Female GU - Uterus",18.2 µM
same,GI50,"KLE, Female GU - Uterus",16.6 µM
same,IC50,"KLE, Female GU - Uterus",18.2 µM
same,EC50,"KPL-1, KPL-1, Breast",4.18 µM
same,GI50,"KPL-1, KPL-1, Breast",4.13 µM
same,IC50,"KPL-1, KPL-1, Breast",4.18 µM
same,EC50,"KU812, KU812, Leukemia",9.5 µM
same,GI50,"KU812, KU812, Leukemia",9.13 µM
same,IC50,"KU812, KU812, Leukemia",9.5 µM
same,EC50,"L-428, L-428, Lymphoma",2.07 µM
same,GI50,"L-428, L-428, Lymphoma",2.06 µM
same,IC50,"L-428, L-428, Lymphoma",2.07 µM
same,EC50,"LNCaP, Prostate",11.5 µM
same,GI50,"LNCaP, Prostate",12.4 µM
same,IC50,"LNCaP, Prostate",12.9 µM
same,EC50,"LS-123, LS123, Colon",12 µM
same,GI50,"LS-123, LS123, Colon",10.7 µM
same,IC50,"LS-123, LS123, Colon",12 µM
same,EC50,"LS-411N, LS411N, Colon",23.1 µM
same,GI50,"LS-411N, LS411N, Colon",22.6 µM
same,IC50,"LS-411N, LS411N, Colon",23.1 µM
same,EC50,"LS-1034, LS1034, Colon",23.6 µM
same,GI50,"LS-1034, LS1034, Colon",23.5 µM
same,IC50,"LS-1034, LS1034, Colon",23.6 µM
same,EC50,"M059J, CNS - Glioma",13 µM
same,GI50,"M059J, CNS - Glioma",12.9 µM
same,IC50,"M059J, CNS - Glioma",13 µM
same,EC50,"MC116, MC116, Lymphoma",12.5 µM
same,GI50,"MC116, MC116, Lymphoma",12.4 µM
same,IC50,"MC116, MC116, Lymphoma",12.5 µM
same,EC50,"MC-IXC, CNS - Neuroblastoma",6.88 µM
same,GI50,"MC-IXC, CNS - Neuroblastoma",6.88 µM
same,IC50,"MC-IXC, CNS - Neuroblastoma",6.88 µM
same,EC50,"MCF7, MCF7, Breast",12.1 µM
same,GI50,"MCF7, MCF7, Breast",11.9 µM
same,IC50,"MCF7, MCF7, Breast",12.1 µM
same,EC50,"MDA-MB-231, MDA MB 231, Breast",11.4 µM
same,GI50,"MDA-MB-231, MDA MB 231, Breast",11.3 µM
same,IC50,"MDA-MB-231, MDA MB 231, Breast",11.4 µM
same,EC50,"MDA-MB-436, MDA-MB-436, Breast",10.3 µM
same,GI50,"MDA-MB-436, MDA-MB-436, Breast",10.2 µM
same,IC50,"MDA-MB-436, MDA-MB-436, Breast",10.3 µM
same,EC50,"MDA-MB-453, MDA MB 453, Breast",3.76 µM
same,GI50,"MDA-MB-453, MDA MB 453, Breast",3.68 µM
same,IC50,"MDA-MB-453, MDA MB 453, Breast",3.76 µM
same,EC50,"MDA-MB-468, MDA MB 468, Breast",7.41 µM
same,GI50,"MDA-MB-468, MDA MB 468, Breast",7.34 µM
same,IC50,"MDA-MB-468, MDA MB 468, Breast",7.43 µM
same,EC50,[2],25.3 µM
same,GI50,[2],25.2 µM
same,IC50,[2],25.3 µM
same,EC50,"MEG-01, MEG01, Leukemia",8.39 µM
same,GI50,"MEG-01, MEG01, Leukemia",8.37 µM
same,IC50,"MEG-01, MEG01, Leukemia",8.39 µM
same,EC50,"MES-SA, Soft Tissue - Sarcoma",6.49 µM
same,GI50,"MES-SA, Soft Tissue - Sarcoma",6.44 µM
same,IC50,"MES-SA, Soft Tissue - Sarcoma",6.49 µM
same,EC50,[3],11.2 µM
same,GI50,[3],11.1 µM
same,IC50,[3],11.2 µM
same,EC50,[4],5.71 µM
same,GI50,[4],5.71 µM
same,IC50,[4],5.71 µM
same,EC50,[5],11 µM
same,GI50,[5],11 µM
same,IC50,[5],11 µM
same,EC50,"MOLT-3, MOLT-3, Leukemia",3.15 µM
same,GI50,"MOLT-3, MOLT-3, Leukemia",3.13 µM
same,IC50,"MOLT-3, MOLT-3, Leukemia",3.15 µM
same,EC50,"MOLT-16, MOLT-16, Leukemia",4.02 µM
same,GI50,"MOLT-16, MOLT-16, Leukemia",4.01 µM
same,IC50,"MOLT-16, MOLT-16, Leukemia",4.02 µM
same,EC50,[6],12.1 µM
same,GI50,[6],12 µM
same,IC50,[6],12.1 µM
same,EC50,"MT-3, Colon",23.9 µM
same,GI50,"MT-3, Colon",23.8 µM
same,IC50,"MT-3, Colon",23.9 µM
same,EC50,"MV4-11, MV-4-11, Leukemia",3.81 µM
same,GI50,"MV4-11, MV-4-11, Leukemia",3.8 µM
same,IC50,"MV4-11, MV-4-11, Leukemia",3.81 µM
same,EC50,"MX1, Leukemia",2.46 µM
same,GI50,"MX1, Leukemia",2.46 µM
same,IC50,"MX1, Leukemia",2.46 µM
same,EC50,[7],20.6 µM
same,GI50,[7],17.8 µM
same,IC50,[7],20.6 µM
same,EC50,"MeWo, Skin (Melanoma)",9.66 µM
same,GI50,"MeWo, Skin (Melanoma)",9.51 µM
same,IC50,"MeWo, Skin (Melanoma)",9.66 µM
same,EC50,"NALM-6, NALM-6, Leukemia",2.61 µM
same,GI50,"NALM-6, NALM-6, Leukemia",2.61 µM
same,IC50,"NALM-6, NALM-6, Leukemia",2.61 µM
same,EC50,"NAMALWA, Lymphoma",3.91 µM
same,GI50,"NAMALWA, Lymphoma",3.9 µM
same,IC50,"NAMALWA, Lymphoma",3.91 µM
same,EC50,"NCI-H69, NCI-H69, Lung - SCLC",15.9 µM
same,GI50,"NCI-H69, NCI-H69, Lung - SCLC",15.1 µM
same,IC50,"NCI-H69, NCI-H69, Lung - SCLC",15.9 µM
same,EC50,[8],9.21 µM
same,GI50,[8],9.19 µM
same,IC50,[8],9.21 µM
same,EC50,[9],25.6 µM
same,GI50,[9],21.6 µM
same,IC50,[9],25.6 µM
same,EC50,[10],4.76 µM
same,GI50,[10],> 30 µM
same,IC50,[10],> 30 µM
same,EC50,"NCI-H446, NCIH446, Lung - SCLC",7.81 µM
same,GI50,"NCI-H446, NCIH446, Lung - SCLC",7.62 µM
same,IC50,"NCI-H446, NCIH446, Lung - SCLC",7.81 µM
same,EC50,[11],12.2 µM
same,GI50,[11],13 µM
same,IC50,[11],13 µM
same,EC50,"NCI-H508, NCI-H508, Colon",> 30 µM
same,GI50,"NCI-H508, NCI-H508, Colon",> 30 µM
same,IC50,"NCI-H508, NCI-H508, Colon",> 30 µM
same,EC50,[12],20.8 µM
same,GI50,[12],20.6 µM
same,IC50,[12],20.8 µM
same,EC50,[13],28.2 µM
same,GI50,[13],> 30 µM
same,IC50,[13],> 30 µM
same,EC50,[14],5.94 µM
same,GI50,[14],5.86 µM
same,IC50,[14],5.94 µM
same,EC50,"NCI-H747, NCI-H747, Colon",28.1 µM
same,GI50,"NCI-H747, NCI-H747, Colon",28.1 µM
same,IC50,"NCI-H747, NCI-H747, Colon",28.2 µM
same,EC50,[15],7.41 µM
same,GI50,[15],7.39 µM
same,IC50,[15],7.41 µM
same,EC50,"OCUG-1, OCUG-1, Liver",15.6 µM
same,GI50,"OCUG-1, OCUG-1, Liver",15.5 µM
same,IC50,"OCUG-1, OCUG-1, Liver",15.6 µM
same,EC50,"OE19, OE19, Head and Neck",20.7 µM
same,GI50,"OE19, OE19, Head and Neck",20.5 µM
same,IC50,"OE19, OE19, Head and Neck",20.7 µM
same,EC50,"OE21, OE21, Head and Neck",12.7 µM
same,GI50,"OE21, OE21, Head and Neck",12.7 µM
same,IC50,"OE21, OE21, Head and Neck",12.7 µM
same,EC50,[16],15.6 µM
same,GI50,[16],14.9 µM
same,IC50,[16],15.6 µM
same,EC50,"PA-1, Female GU - Ovary",7.89 µM
same,GI50,"PA-1, Female GU - Ovary",7.89 µM
same,IC50,"PA-1, Female GU - Ovary",7.9 µM
same,EC50,"PANC-1, PANC-1, Pancreas",11.7 µM
same,GI50,"PANC-1, PANC-1, Pancreas",11.6 µM
same,IC50,"PANC-1, PANC-1, Pancreas",11.7 µM
same,EC50,"PC-3, Prostate",7.71 µM
same,GI50,"PC-3, Prostate",7.64 µM
same,IC50,"PC-3, Prostate",7.71 µM
same,EC50,"PFSK-1, PFSK-1, CNS - Glioma",3.82 µM
same,GI50,"PFSK-1, PFSK-1, CNS - Glioma",3.8 µM
same,IC50,"PFSK-1, PFSK-1, CNS - Glioma",3.82 µM
same,EC50,"PSN1, PSN-1, Pancreas",5.04 µM
same,GI50,"PSN1, PSN-1, Pancreas",5.04 µM
same,IC50,"PSN1, PSN-1, Pancreas",5.04 µM
same,EC50,"RD, Soft Tissue - Sarcoma",5.19 µM
same,GI50,"RD, Soft Tissue - Sarcoma",5.17 µM
same,IC50,"RD, Soft Tissue - Sarcoma",5.19 µM
same,EC50,"RKO, Colon",12 µM
same,GI50,"RKO, Colon",12 µM
same,IC50,"RKO, Colon",12 µM
same,EC50,"RKOE6, RKOE6, Colon",6.79 µM
same,GI50,"RKOE6, RKOE6, Colon",6.76 µM
same,IC50,"RKOE6, RKOE6, Colon",6.79 µM
same,EC50,"RPMI-6666, RPMI 6666, Lymphoma",23.1 µM
same,GI50,"RPMI-6666, RPMI 6666, Lymphoma",23 µM
same,IC50,"RPMI-6666, RPMI 6666, Lymphoma",23.1 µM
same,EC50,[17],9.98 µM
same,GI50,[17],9.96 µM
same,IC50,[17],9.98 µM
same,EC50,"RPMI-8226, RPMI 8226, Myeloma",3.03 µM
same,GI50,"RPMI-8226, RPMI 8226, Myeloma",3.03 µM
same,IC50,"RPMI-8226, RPMI 8226, Myeloma",3.04 µM
same,EC50,"RS4-11, RS4, 11, Leukemia",4.15 µM
same,GI50,"RS4-11, RS4, 11, Leukemia",4.16 µM
same,IC50,"RS4-11, RS4, 11, Leukemia",4.23 µM
same,EC50,"Raji, Lymphoma",3.92 µM
same,GI50,"Raji, Lymphoma",3.92 µM
same,IC50,"Raji, Lymphoma",3.92 µM
same,EC50,"Ramos, Ramos (RA 1), Lymphoma",4.17 µM
same,GI50,"Ramos, Ramos (RA 1), Lymphoma",4.17 µM
same,IC50,"Ramos, Ramos (RA 1), Lymphoma",4.17 µM
same,EC50,[18],10.6 µM
same,GI50,[18],10.7 µM
same,IC50,[18],10.7 µM
same,EC50,"SCC-4, SCC-4, Head and Neck",15.8 µM
same,GI50,"SCC-4, SCC-4, Head and Neck",15.5 µM
same,IC50,"SCC-4, SCC-4, Head and Neck",15.8 µM
same,EC50,"SCC-9, SCC-9, Head and Neck",16.5 µM
same,GI50,"SCC-9, SCC-9, Head and Neck",16.4 µM
same,IC50,"SCC-9, SCC-9, Head and Neck",16.5 µM
same,EC50,"SCC-25, SCC-25, Head and Neck",25 µM
same,GI50,"SCC-25, SCC-25, Head and Neck",25 µM
same,IC50,"SCC-25, SCC-25, Head and Neck",25 µM
same,EC50,"SCaBER, Bladder",16.9 µM
same,GI50,"SCaBER, Bladder",16.8 µM
